From US20130109734A1 (Metabolex, Inc., priority 2010, published 2013) come the findings set out here.

In one experiment the target is T1, human GPR120 (Homo sapiens, UniProt Q5NUL3).
T1 construct: host or cells: HEK293 cells co-expressing Gqi5
T1 sequence (Q5NUL3 1-361): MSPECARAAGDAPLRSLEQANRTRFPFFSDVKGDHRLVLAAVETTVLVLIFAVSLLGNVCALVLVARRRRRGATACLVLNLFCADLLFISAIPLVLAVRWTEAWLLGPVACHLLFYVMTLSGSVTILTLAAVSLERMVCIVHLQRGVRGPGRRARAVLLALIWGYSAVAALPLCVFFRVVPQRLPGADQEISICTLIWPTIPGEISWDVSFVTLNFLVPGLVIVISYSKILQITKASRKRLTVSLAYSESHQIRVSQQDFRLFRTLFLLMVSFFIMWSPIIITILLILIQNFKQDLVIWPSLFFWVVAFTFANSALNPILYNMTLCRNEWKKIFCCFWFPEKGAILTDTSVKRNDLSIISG
Briefly: Intracellular Ca2+ assay in human GPR120 stable cell line (HEK293 co-expressing Gqi5), Flexstation. Particulars: % activity at 5 μM compared to the maximal activity of GW9508 at 6.7 μM (=100%); human GPR120 cells, Ca2+ fluorescence. The class given is cell-based. The method, then:
Human GPR120 stable cell line was purchased from Multispan Inc (26219 Eden Landing Road, Hayward, Calif. 94545). This GPR120 cell line was generated in HEK293 cells co-expressing Gqi5. In this cell line, the Flag epitope tag (DYKDDDDK) was fused to the amino terminus of human GPR120 protein.
The concentration of intracellular Ca^2+ was measured as described below. Human GPR120 cells were plated in 96 well plates (Poly-D-Lysine coated black/clear Plate, Greiner Bio-One) at 70,000 cells per well and cultured overnight in conditions of 37° C. and 5% CO2. A Ca^2+assay dye stock solution was prepared by adding 10 mL of assay buffer (HBSS/20 mM HEPES, pH 7.4) to FLIPR Calcium 4 Assay Bulk Kit (Molecular Devices). The 10 mL of Ca^2+ assay dye solution was prepared by further diluting 0.5 mL of Ca^2+ assay dye stock solution with 10 mL of assay buffer. The medium of the cells was removed and immediately 100 μL of the Ca^2+ assay dye solution was dispensed into each well followed by incubation at 37° C. and 5% CO2 for 50 minutes to incorporate the Ca^2+ dye into the cells. The cell plate was then placed in the Flexstation (Molecular Devices) for 20 minutes at 37° C. Compounds were dissolved in 100% DMSO and diluted to desired concentrations with assay buffer and placed in the Flexstation simultaneously with the cell plate for 20 minute incubation at 37° C. prior to reading. Fluorescence intensity was measured immediately following compound addition (25 μL/well) on the Flexstation at an excitation wavelength of 485 nm and an emission wavelength of 525 with 515 nm auto cutoff. The resulting increase in fluorescence intensities corresponds to increases in intracellular Ca^2+ levels.
Compounds were dissolved in 100% DMSO to a concentration of 20 mM to provide stock solutions. To determine activity against human GPR120, compounds were added with human GPR120 stably expressing cells (described above), at eight desired concentrations ranging from 0.00001 to 20 μM, in 96 well plates and fluorescence intensities were measured for 90 seconds with 2-second intervals. An EC50 value (concentration of the GPR120 agonist where 50% of the agonist's maximal activity is observed) was calculated using the changes (Max−Min) of fluorescence intensity.
To determine percent activity for a tested compound, the fluorescence intensity value obtained at a particular concentration were compared to the maximal fluorescence intensity value obtained for reference compound GW9508 (4-[[(3-phenoxyphenyl)methyl]amino]benzene propanoic acid; British Journal of Pharmacology 2006 148, 619-628) or the compound of Example 25. When GW9508 was used as the reference compound, the maximal activity of GW9508 at 6.7 μM was designated as 100% activity. When the compound of Example 25 was used as the reference compound, the maximal activity of the compound of Example 25 at 2.5 μM was designated as 100% activity. Typically, the GW9508 activity reached a maximum at a concentration of approximately 6.7 μM and typically the compound of Example 25 reached a maximum activity at approximately 2.5 μM.
In the case of `CC1(C)Cc2cc(F)cc(COc3ccc(C4CC4C(=O)O)cc3)c2O1` (single isomer, unassigned) [Example 131B, 2-(4-((5-fluoro-2,2-dimethyl-2,3-dihydrobenzofuran-7-yl)methoxy)phenyl)cyclopropanecarboxylic acid], the “% Activity (GW9508 Reference Compound)” value is 105.8%.

`CC1(C)Cc2cc(F)cc(COc3ccc(CCC(=O)O)c4c3CCC4)c2O1` [Example 63, 3-(7-((5-fluoro-2,2-dimethyl-2,3-dihydrobenzofuran-7-yl)methoxy)-2,3-dihydro-1H-inden-4-yl)propanoic acid]: the “% Activity (GW9508 Reference Compound)” value turned out to be 95.03%.

On to `CC(Cc1cc(F)c(OCc2cc(Cl)cc3c2OC(C)(C)C3)c(F)c1)C(=O)O` (stereo not drawn) [Example 38, 3-(4-((5-chloro-2,2-dimethyl-2,3-dihydrobenzofuran-7-yl)methoxy)-3,5-difluorophenyl)-2-methylpropanoic acid], for which the “% Activity (GW9508 Reference Compound)” value was found to be 83.43%.

For `CC(=O)Nc1cc(COc2ccc(CC(C)C(=O)O)cc2)c2c(c1)CC(C)(C)O2` (stereo not drawn) [Example 123, 3-(4-((5-acetamido-2,2-dimethyl-2,3-dihydrobenzofuran-7-yl)methoxy)phenyl)-2-methylpropanoic acid], the “% Activity (GW9508 Reference Compound)” value worked out at 47.01%.

Consider `CC(Cc1cc(F)c(OCc2cc(Cl)cc3c2OC(C)C3(C)C)c(F)c1)C(=O)O` (stereo not drawn) [Example 109, 3-(4-((5-chloro-2,3,3-trimethyl-2,3-dihydrobenzofuran-7-yl)methoxy)-3,5-difluorophenyl)-2-methylpropanoic acid], for which the “% Activity (GW9508 Reference Compound)” value turned out to be 72.36%.

For `CC1(C)Cc2cc(F)cc(COc3ccc4c(c3)CC[C@H]4CC(=O)O)c2O1` [Example 175, (S)-2-(5-((5-fluoro-2,2-dimethyl-2,3-dihydrobenzofuran-7-yl)methoxy)-2,3-dihydro-1H-inden-1-yl)acetic acid], the “% Activity (GW9508 Reference Compound)” value was found to be 152.44%.

Consider `CC(CCc1ccc(OCc2cc(F)cc3c2OC(C)(C)C3)cc1)C(=O)O` (stereo not drawn) [Example 171, 4-(4-((5-fluoro-2,2-dimethyl-2,3-dihydrobenzofuran-7-yl)methoxy)phenyl)-2-methylbutanoic acid], for which the “% Activity (GW9508 Reference Compound)” value is 98.97%.

For `Cc1cc(OCc2cc(F)cc3c2OC(C)(C)C3)c(C)cc1CCC(=O)O` [Example 206, 3-(4-((5-fluoro-2,2-dimethyl-2,3-dihydrobenzofuran-7-yl)methoxy)-2,5-dimethylphenyl)propanoic acid], the “% Activity (GW9508 Reference Compound)” value is recorded as 111.45%.

Consider `[2H]C1([2H])c2cc(Cl)cc(COc3ccc(CC(C)C(=O)O)cc3F)c2OC1(C)C` (stereo not drawn) [Example 146, 3-(4-((3,3-dideuterio-5-chloro-2,2-dimethyl-2,3-dihydrobenzofuran-7-yl)methoxy)-3-fluorophenyl)-2-methylpropanoic acid], for which the “% Activity (GW9508 Reference Compound)” value is 140.72%.

With `CC(CC(=O)O)c1cc(F)c(OCc2cc(Cl)cc3c2OC(C)(C)C3)c(F)c1` (stereo not drawn) [Example 106, 3-(4-((5-chloro-2,2-dimethyl-2,3-dihydrobenzofuran-7-yl)methoxy)-3,5-difluorophenyl)butanoic acid], the “% Activity (GW9508 Reference Compound)” value is reported as 154.51%.

On to `Cc1cc2c(OCc3cc(F)cc4c3OC(C)(C)C4)ccc(CCC(=O)O)c2o1` [Example 125, 3-(4-((5-fluoro-2,2-dimethyl-2,3-dihydrobenzofuran-7-yl)methoxy)-2-methylbenzofuran-7-yl)propanoic acid], for which the “% Activity (GW9508 Reference Compound)” value was 32.57%.

Consider `CC(Cc1cc(F)c(OCc2cc(F)cc3c2OC(C)(C)C3)c(F)c1)C(=O)O` (stereo not drawn) [Example 18, 3-(3,5-difluoro-4-((5-fluoro-2,2-dimethyl-2,3-dihydrobenzofuran-7-yl)methoxy)phenyl)-2-methylpropanoic acid], for which the “% Activity (GW9508 Reference Compound)” value is given as 130.0714%.

In the case of `COc1cc(CC(C)C(=O)O)ccc1OCc1cc(Cl)cc2c1OC(C)(C)C2` (stereo not drawn) [Example 15, 3-(4-((5-chloro-2,2-dimethyl-2,3-dihydrobenzofuran-7-yl)methoxy)-3-methoxyphenyl)-2-methylpropanoic acid], the “% Activity (GW9508 Reference Compound)” value is reported as 109.2%.

Consider `CC1(C)Cc2c(COc3c(F)cc(C4CC4C(=O)O)cc3F)cccc2O1` (stereo not drawn) [Example 22, 2-(4-((2,2-dimethyl-2,3-dihydrobenzofuran-4-yl)methoxy)-3,5-difluorophenyl)cyclopropanecarboxylic acid], for which the “% Activity (GW9508 Reference Compound)” value worked out at 126%.

For `Cc1c(CCC(=O)O)ccc(OCc2cc(Cl)cc3c2OC(C)(C)C3)c1C` [Example 209, 3-(4-((5-chloro-2,2-dimethyl-2,3-dihydrobenzofuran-7-yl)methoxy)-2,3-dimethylphenyl)propanoic acid], the “% Activity (GW9508 Reference Compound)” value is given as 142.22%.

`CC(Cc1ccc(OCc2cc(Cl)cc3c2OC(C)(C)C3O)c(F)c1)C(=O)O` (stereo not drawn) [Example 80, 3-(4-((5-chloro-3-hydroxy-2,2-dimethyl-2,3-dihydrobenzofuran-7-yl)methoxy)-3-fluorophenyl)-2-methylpropanoic acid]: the “% Activity (GW9508 Reference Compound)” value is 86.25%.

For the compound `CC1(C)Cc2c(COc3ccc4c(c3)CC[C@@H]4CC(=O)O)cc(F)cc2O1` [Example 188, (R)-2-(5-((6-fluoro-2,2-dimethyl-2,3-dihydrobenzofuran-4-yl)methoxy)-2,3-dihydro-1H-inden-1-yl)acetic acid], the “% Activity (GW9508 Reference Compound)” value was 104.04%.

Take `Cc1cc(OCc2cc(F)cc3c2OC(C)(C)C3)c(F)cc1CCC(=O)O` [Example 214, 3-(5-fluoro-4-((5-fluoro-2,2-dimethyl-2,3-dihydrobenzofuran-7-yl)methoxy)-2-methylphenyl)propanoic acid]: the “% Activity (GW9508 Reference Compound)” value is reported as 143.21%.

Consider `CC(Cc1ccc(OCc2cc(Cl)cc3c2OC(C)(C)C3=O)c(F)c1)C(=O)O` (stereo not drawn) [Example 77, 3-(4-((5-chloro-2,2-dimethyl-3-oxo-2,3-dihydrobenzofuran-7-yl)methoxy)-3-fluorophenyl)-2-methylpropanoic acid], for which the “% Activity (GW9508 Reference Compound)” value stood at 109.62%.

For the compound `CC(Cc1cc(F)c(OCc2ccc(F)c3c2OC(C)(C)C3)c(F)c1)C(=O)O` (stereo not drawn) [Example 28, 3-(3,5-difluoro-4-((4-fluoro-2,2-dimethyl-2,3-dihydrobenzofuran-7-yl)methoxy)phenyl)-2-methylpropanoic acid], the “% Activity (GW9508 Reference Compound)” value was found to be 109.6%.

Consider `CC(Cc1cc(F)c(OCc2cccc3c2OC(C)C3C)c(F)c1)C(=O)O` (stereo not drawn) [Example 40, 3-(4-((2,3-dimethyl-2,3-dihydrobenzofuran-7-yl)methoxy)-3,5-difluorophenyl)-2-methylpropanoic acid], for which the “% Activity (GW9508 Reference Compound)” value came out at 95.33%.

Regarding `CC(Cc1ccc(OCc2cc(F)cc3c2OC(C)(C)C3)c(F)c1)C(=O)O` (stereo not drawn) [Example 8, 3-(3-fluoro-4-((5-fluoro-2,2-dimethyl-2,3-dihydrobenzofuran-7-yl)methoxy)phenyl)-2-methylpropanoic acid], the “% Activity (GW9508 Reference Compound)” value was determined as 135.3906%.

In the case of `Cc1c(CCC(=O)O)ccc(OCc2cc(Cl)cc3c2CC(C)(C)O3)c1C` [Example 267, 3-(4-((6-chloro-2,2-dimethyl-2,3-dihydrobenzofuran-4-yl)methoxy)-2,3-dimethylphenyl)propanoic acid], the “% Activity (GW9508 Reference Compound)” value worked out at 140.82%.

The experiment is the same for the next values; noted with them: human GPR120 stably expressing cells, Ca2+ fluorescence (Max-Min), eight concentrations 0.00001 to 20 μM.
For the compound `CC(Cc1cc(F)c(OCc2cccc3c2OC(C)C3C)c(F)c1)C(=O)O` (stereo not drawn) [Example 40, 3-(4-((2,3-dimethyl-2,3-dihydrobenzofuran-7-yl)methoxy)-3,5-difluorophenyl)-2-methylpropanoic acid], the concentration for a half-maximal effect (EC50) (as a rule, the midpoint of the concentration-response curve) is above 10 µM.
